Test results published in US20050148500A1, “Dopaminergic stimulatory factor” (priority 2001, published 2005).

Tested on: MN9D cells
Assay: Dopamine content of MN9D cells in monolayer culture after incubation with protein (HPLC)
Assay type: cell-based, mouse
Experimental: […] The MN9D cells on each plate were then collected in 10 ml of CMF, transferred to 15 ml centrifuge tubes and centrifuged at 1000×g for 5 min. The supernatant was removed and 600 μl of 0.5 N perchloric acid was added to the cell pellet which was then sonicated on ice for 10-15 s. The cell extract was centrifuged at 4000×g for 30 min and the supernatant stored at −80° C. for subsequent high pressure liquid chromatography (HPLC) analysis of MN9D cell dopamine content. The pellet was stored at −20° C. for subsequent protein analysis.
A second experiment was then conducted to determine whether this effect was due to a change in the doubling time (24 h) of the MN9D cells with increased cell production or was the result of an increase in cellular dopamine. […] Cells were removed from the plates and cell numbers determined by counting in a hematocytometer. Dopamine content was determined by HPLC analysis. […]
After this period, the MN9D cells on each plate are collected in 10 ml of CMF, transferred to 15 ml centrifuge tubes and centrifuged at 1000×g for 5 min. […] MN9D cell DA content is determined by reverse phase high pressure liquid chromatography with electrochemical detection (HPLC-ED) as previously described (Heller et al., 1993). […]

With insulin growth factor II [IGF-II] the “effect on MN9D DA levels” value was “without effect”.
